Reference: US8192962B2, “Processes for detecting toxic substances” (Daikin Industries, Ltd., priority 2001, dated 2012)

Test system: Stress protein genes
Assay: DNA chip mRNA expression in yeast, stress protein genes (Table 6)
Assay type: cell-based, Saccharomyces cerevisiae S288C
Procedure, shortened: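 First, S288C yeast grown in YPD at 25° C. are dosed in log phase with one toxicant (growth-inhibiting, not lethal) for 2 h. Next, total RNA is extracted and poly(A) mRNA isolated and reverse-transcribed with Cy3/Cy5-dUTP. Finally, whole-genome chip fluorescence is read relative to unexposed cells.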

Substance: Na2As [(1)]
- The level of expressed mRNA in the presence of chemical substance/The level of expressed mRNA in the absence of chemical substance (yeast gene YAL005C): 0.6
- The level of expressed mRNA in the presence of chemical substance/The level of expressed mRNA in the absence of chemical substance (yeast gene YAL015C): 1.2
- The level of expressed mRNA in the presence of chemical substance/The level of expressed mRNA in the absence of chemical substance (yeast gene YBL075C): 1.3
- The level of expressed mRNA in the presence of chemical substance/The level of expressed mRNA in the absence of chemical substance (yeast gene YBL093C): 1.0
- The level of expressed mRNA in the presence of chemical substance/The level of expressed mRNA in the absence of chemical substance (yeast gene YBR044C): 0.8
- The level of expressed mRNA in the presence of chemical substance/The level of expressed mRNA in the absence of chemical substance (yeast gene YBR054W): 1.9
- The level of expressed mRNA in the presence of chemical substance/The level of expressed mRNA in the absence of chemical substance (yeast gene YBR067C): 1.6
- The level of expressed mRNA in the presence of chemical substance/The level of expressed mRNA in the absence of chemical substance (yeast gene YBR072W): 18.5
- The level of expressed mRNA in the presence of chemical substance/The level of expressed mRNA in the absence of chemical substance (yeast gene YBR126C): 0.8
- The level of expressed mRNA in the presence of chemical substance/The level of expressed mRNA in the absence of chemical substance (yeast gene YBR169C): 1.0
- The level of expressed mRNA in the presence of chemical substance/The level of expressed mRNA in the absence of chemical substance (yeast gene YCL035C): 2.0
- The level of expressed mRNA in the presence of chemical substance/The level of expressed mRNA in the absence of chemical substance (yeast gene YCR021C): 5.2
- The level of expressed mRNA in the presence of chemical substance/The level of expressed mRNA in the absence of chemical substance (yeast gene YCR083W): 1.1
- The level of expressed mRNA in the presence of chemical substance/The level of expressed mRNA in the absence of chemical substance (yeast gene YDL022W): 0.9
- The level of expressed mRNA in the presence of chemical substance/The level of expressed mRNA in the absence of chemical substance (yeast gene YDL025C): 1.7
- The level of expressed mRNA in the presence of chemical substance/The level of expressed mRNA in the absence of chemical substance (yeast gene YDR033W): 1.1
- The level of expressed mRNA in the presence of chemical substance/The level of expressed mRNA in the absence of chemical substance (yeast gene YDR077W): 1.2
- The level of expressed mRNA in the presence of chemical substance/The level of expressed mRNA in the absence of chemical substance (yeast gene YDR098C): 0.8
- The level of expressed mRNA in the presence of chemical substance/The level of expressed mRNA in the absence of chemical substance (yeast gene YDR155C): 1.1
- The level of expressed mRNA in the presence of chemical substance/The level of expressed mRNA in the absence of chemical substance (yeast gene YDR258C): 1.6
- The level of expressed mRNA in the presence of chemical substance/The level of expressed mRNA in the absence of chemical substance (yeast gene YDR293C): 0.9
- The level of expressed mRNA in the presence of chemical substance/The level of expressed mRNA in the absence of chemical substance (yeast gene YDR436W): 0.9
- The level of expressed mRNA in the presence of chemical substance/The level of expressed mRNA in the absence of chemical substance (yeast gene YDR513W): 2.2
- The level of expressed mRNA in the presence of chemical substance/The level of expressed mRNA in the absence of chemical substance (yeast gene YDR519W): 1.3
- The level of expressed mRNA in the presence of chemical substance/The level of expressed mRNA in the absence of chemical substance (yeast gene YEL030W): 0.7
- The level of expressed mRNA in the presence of chemical substance/The level of expressed mRNA in the absence of chemical substance (yeast gene YEL039C): 1.1
- The level of expressed mRNA in the presence of chemical substance/The level of expressed mRNA in the absence of chemical substance (yeast gene YER042W): 3.0
- The level of expressed mRNA in the presence of chemical substance/The level of expressed mRNA in the absence of chemical substance (yeast gene YER057C): 1.2
- The level of expressed mRNA in the presence of chemical substance/The level of expressed mRNA in the absence of chemical substance (yeast gene YER103W): 0.7
- The level of expressed mRNA in the presence of chemical substance/The level of expressed mRNA in the absence of chemical substance (yeast gene YER125W): 0.6
- The level of expressed mRNA in the presence of chemical substance/The level of expressed mRNA in the absence of chemical substance (yeast gene YFL014W): 3.4
- The level of expressed mRNA in the presence of chemical substance/The level of expressed mRNA in the absence of chemical substance (yeast gene YFL016C): 0.8
- The level of expressed mRNA in the presence of chemical substance/The level of expressed mRNA in the absence of chemical substance (yeast gene YFL020C): 1.0
- The level of expressed mRNA in the presence of chemical substance/The level of expressed mRNA in the absence of chemical substance (yeast gene YFR052W): 1.1
- The level of expressed mRNA in the presence of chemical substance/The level of expressed mRNA in the absence of chemical substance (yeast gene YGL073W): 1.0
- The level of expressed mRNA in the presence of chemical substance/The level of expressed mRNA in the absence of chemical substance (yeast gene YGL115W): 0.9
- The level of expressed mRNA in the presence of chemical substance/The level of expressed mRNA in the absence of chemical substance (yeast gene YGL181W): 0.9
- The level of expressed mRNA in the presence of chemical substance/The level of expressed mRNA in the absence of chemical substance (yeast gene YGR088W): 1.3
- The level of expressed mRNA in the presence of chemical substance/The level of expressed mRNA in the absence of chemical substance (yeast gene YHL028W): 0.7
- The level of expressed mRNA in the presence of chemical substance/The level of expressed mRNA in the absence of chemical substance (yeast gene YHL046C): 1.1
- The level of expressed mRNA in the presence of chemical substance/The level of expressed mRNA in the absence of chemical substance (yeast gene YHR030C): 2.1
- The level of expressed mRNA in the presence of chemical substance/The level of expressed mRNA in the absence of chemical substance (yeast gene YHR057C): 1.1
- The level of expressed mRNA in the presence of chemical substance/The level of expressed mRNA in the absence of chemical substance (yeast gene YHR104W): 1.0
- The level of expressed mRNA in the presence of chemical substance/The level of expressed mRNA in the absence of chemical substance (yeast gene YIL011W): 0.7
- The level of expressed mRNA in the presence of chemical substance/The level of expressed mRNA in the absence of chemical substance (yeast gene YIL033C): 0.8
- The level of expressed mRNA in the presence of chemical substance/The level of expressed mRNA in the absence of chemical substance (yeast gene YIR037W): 1.4
- The level of expressed mRNA in the presence of chemical substance/The level of expressed mRNA in the absence of chemical substance (yeast gene YIR038C): 1.3
- The level of expressed mRNA in the presence of chemical substance/The level of expressed mRNA in the absence of chemical substance (yeast gene YJL128C): 0.8
- The level of expressed mRNA in the presence of chemical substance/The level of expressed mRNA in the absence of chemical substance (yeast gene YJL158C): 0.9
- The level of expressed mRNA in the presence of chemical substance/The level of expressed mRNA in the absence of chemical substance (yeast gene YJL159W): 1.0
- The level of expressed mRNA in the presence of chemical substance/The level of expressed mRNA in the absence of chemical substance (yeast gene YJL165C): 1.0
- The level of expressed mRNA in the presence of chemical substance/The level of expressed mRNA in the absence of chemical substance (yeast gene YJR045C): 0.5
- The level of expressed mRNA in the presence of chemical substance/The level of expressed mRNA in the absence of chemical substance (yeast gene YJR090C): 0.8
- The level of expressed mRNA in the presence of chemical substance/The level of expressed mRNA in the absence of chemical substance (yeast gene YKL161C): 4.2
- The level of expressed mRNA in the presence of chemical substance/The level of expressed mRNA in the absence of chemical substance (yeast gene YKL163W): 1.1
- The level of expressed mRNA in the presence of chemical substance/The level of expressed mRNA in the absence of chemical substance (yeast gene YKL164C): 0.6
- The level of expressed mRNA in the presence of chemical substance/The level of expressed mRNA in the absence of chemical substance (yeast gene YKL210W): 0.5
- The level of expressed mRNA in the presence of chemical substance/The level of expressed mRNA in the absence of chemical substance (yeast gene YKR053C): 0.9
- The level of expressed mRNA in the presence of chemical substance/The level of expressed mRNA in the absence of chemical substance (yeast gene YLL024C): 0.5
- The level of expressed mRNA in the presence of chemical substance/The level of expressed mRNA in the absence of chemical substance (yeast gene YLL026W): 1.8
- The level of expressed mRNA in the presence of chemical substance/The level of expressed mRNA in the absence of chemical substance (yeast gene YLL039C): 1.1
- The level of expressed mRNA in the presence of chemical substance/The level of expressed mRNA in the absence of chemical substance (yeast gene YLL060C): 12.5
- The level of expressed mRNA in the presence of chemical substance/The level of expressed mRNA in the absence of chemical substance (yeast gene YLR006C): 0.7
- The level of expressed mRNA in the presence of chemical substance/The level of expressed mRNA in the absence of chemical substance (yeast gene YLR109W): 0.8
- The level of expressed mRNA in the presence of chemical substance/The level of expressed mRNA in the absence of chemical substance (yeast gene YLR259C): 0.7
- The level of expressed mRNA in the presence of chemical substance/The level of expressed mRNA in the absence of chemical substance (yeast gene YML007W): 0.9
- The level of expressed mRNA in the presence of chemical substance/The level of expressed mRNA in the absence of chemical substance (yeast gene YML070W): 0.9
- The level of expressed mRNA in the presence of chemical substance/The level of expressed mRNA in the absence of chemical substance (yeast gene YMR021C): 1.0
- The level of expressed mRNA in the presence of chemical substance/The level of expressed mRNA in the absence of chemical substance (yeast gene YMR173W): 1.5
- The level of expressed mRNA in the presence of chemical substance/The level of expressed mRNA in the absence of chemical substance (yeast gene YMR186W): 0.6
- The level of expressed mRNA in the presence of chemical substance/The level of expressed mRNA in the absence of chemical substance (yeast gene YNL064C): 0.9
- The level of expressed mRNA in the presence of chemical substance/The level of expressed mRNA in the absence of chemical substance (yeast gene YNL160W): 2.1
- The level of expressed mRNA in the presence of chemical substance/The level of expressed mRNA in the absence of chemical substance (yeast gene YNL241C): 1.3
- The level of expressed mRNA in the presence of chemical substance/The level of expressed mRNA in the absence of chemical substance (yeast gene YNR076W): 1.3
- The level of expressed mRNA in the presence of chemical substance/The level of expressed mRNA in the absence of chemical substance (yeast gene YOL064C): 1.4
- The level of expressed mRNA in the presence of chemical substance/The level of expressed mRNA in the absence of chemical substance (yeast gene YOL161C): 1.2
- The level of expressed mRNA in the presence of chemical substance/The level of expressed mRNA in the absence of chemical substance (yeast gene YOR008C): 0.7
- The level of expressed mRNA in the presence of chemical substance/The level of expressed mRNA in the absence of chemical substance (yeast gene YOR009W): 0.9
- The level of expressed mRNA in the presence of chemical substance/The level of expressed mRNA in the absence of chemical substance (yeast gene YOR010C): 0.7
- The level of expressed mRNA in the presence of chemical substance/The level of expressed mRNA in the absence of chemical substance (yeast gene YOR027W): 0.7
- The level of expressed mRNA in the presence of chemical substance/The level of expressed mRNA in the absence of chemical substance (yeast gene YOR208W): 1.3
- The level of expressed mRNA in the presence of chemical substance/The level of expressed mRNA in the absence of chemical substance (yeast gene YPL059W): 1.2
- The level of expressed mRNA in the presence of chemical substance/The level of expressed mRNA in the absence of chemical substance (yeast gene YPL106C): 0.6
- The level of expressed mRNA in the presence of chemical substance/The level of expressed mRNA in the absence of chemical substance (yeast gene YPL140C): 0.9
- The level of expressed mRNA in the presence of chemical substance/The level of expressed mRNA in the absence of chemical substance (yeast gene YPL194W): 0.9
- The level of expressed mRNA in the presence of chemical substance/The level of expressed mRNA in the absence of chemical substance (yeast gene YPL223C): 4.8
- The level of expressed mRNA in the presence of chemical substance/The level of expressed mRNA in the absence of chemical substance (yeast gene YPL240C): 0.7
- The level of expressed mRNA in the presence of chemical substance/The level of expressed mRNA in the absence of chemical substance (yeast gene YPR005C): 1.3
- The level of expressed mRNA in the presence of chemical substance/The level of expressed mRNA in the absence of chemical substance (yeast gene YPR026W): 0.9
